Broadly, the inhibition is the change of the read-out against control, counted positive when it falls. Usually IC50 stands for the concentration that inhibits the measured activity by half. High values mean weaker potency in that assay, low ones greater potency in that assay. One may read the Kd as the concentration at which binding is half-saturated.

In experiment [1] the target is T1, human RORγt LBD (Homo sapiens, UniProt P51449).
T1 construct: expressed in transfected cells; host or cells: HEK293T
T1 sequence (P51449 258-518): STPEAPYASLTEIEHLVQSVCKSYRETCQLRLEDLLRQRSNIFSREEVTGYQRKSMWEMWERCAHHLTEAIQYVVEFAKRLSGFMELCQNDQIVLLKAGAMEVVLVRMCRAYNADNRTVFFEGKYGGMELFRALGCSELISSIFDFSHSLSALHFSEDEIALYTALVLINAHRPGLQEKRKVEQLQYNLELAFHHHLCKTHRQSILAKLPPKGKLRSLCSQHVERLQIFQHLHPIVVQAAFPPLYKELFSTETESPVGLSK
The experiment can be described thus: RORγt (LBD) Reporter Assay (GAL4 luciferase, HEK293T cells). The format is cell-based. Conditions: for inhibition at 6 µM: HEK-293T; for IC50: compounds for 24 hours. As to the method:
Compounds were assessed for RORgt functional modulation using either the RORgt ligand binding domain (LBD) reporter assay, or the RORgt full-length (FL) reporter assay.
A reporter assay was used to test functional activity of RORγt modulatory compounds on transcriptional activation driven by the RORγt LBD. Cells used in the assay were co-transfected with two constructs. The first construct, pBIND-RORγt LBD, contained the wild type human RORγt LBD fused to the DNA binding domain of the GAL4 protein. The second construct, pGL4.31 (Promega Cat no. C935A), contained multiple GAL4 responsive DNA elements upstream of firefly luciferase. […] The mutant construct was called pBIND-RORγt-AF2.
The pBIND vector contains the GAL4 DNA Binding Domain (GAL4 DBD) and the renilla luciferase gene under control of the SV40 promoter. Renilla luciferase expression serves as a control for transfection efficiency and cell viability.
The reporter assay was performed by transiently transfecting HEK293T cells with 5 µg of pBIND-RORγt LBD or pBIND-RORγt LBD-AF2 and 5 µg pGL4.31 (Promega Cat no. C935A) using Fugene 6 (Invitrogen Cat no. E2691) at a 1:6 ratio of DNA: Fugene 6 in a T-75 flask in which cells were at least 80% confluent. Twenty four hours after bulk transfection, cells were plated into 96-well plates at 50,000 cells/well in phenol-red free DMEM containing 5% Lipid Reduced FCS and Pen/Strep. Six hours after plating, cells were treated with compounds for 24 hours. Media was removed and cells were lysed with 50 µL 1x Glo Lysis Buffer (Promega). Dual Glo Luciferase Reagent (50 µL/well) was then added and firefly luciferase luminescence was read on an Envision after a ten minute incubation. Finally, Stop and Glo reagent (50 µL/well) was added and renilla luciferase luminescence was read on an Envision after a ten minute incubation. To calculate the effect of compounds on RORγt activity, the ratio of firefly to renilla luciferase was determined and plotted against compound concentration. Agonist compounds increase RORγt-driven luciferase expression, and antagonist or inverse agonist compounds decrease luciferase expression.

Experiment [2] has as its target T2, human RORγt ligand binding domain (RORγt LBD) (Homo sapiens, UniProt P51449).
T2 construct: His-tag (N); TurboTEV protease cleavage site (ENLYFQG) (N); made in house; host or cells: E. coli (pHIS1, modified pET vector)
T2 sequence (P51449 258-518): T1 sequence (P51449 258-518)
The experiment can be described thus: ThermoFluor® Assay (RORγt thermal shift binding). As to conditions: 0.065 mg/mL RORγt, 60 µM 1,8-ANS, pH 7.0; estimated from concentration response curves. The method, then: This approach is applicable to a wide variety of systems, and rigorous in theoretical interpretation through quantitation of equilibrium binding constants (KD).
The shift in the melting point described as a ΔTm is proportional to the concentration and affinity of the ligand. The compound potency may be compared as a rank order of either ATm values at a single compound concentration or in terms of KD values, estimated from concentration response curves.
ThermoFluor® experiments were carried out using instruments owned by Janssen Research and Discovery, L.L.C. through its acquisition of 3-Dimensional Pharmaceuticals, Inc. 1,8-ANS (Invitrogen) was used as a fluorescent dye. Protein and compound solutions are dispensed into black 384-well polypropylene PCR microplates (Abgene) and overlayed with silicone oil (1 µL, Fluka, type DC 200) to prevent evaporation.
Bar-coded assay plates are robotically loaded onto a thermostatically controlled PCR-type thermal block and then heated at a typical ramp-rate of 1 °C/minute for all experiments. Fluorescence was measured by continuous illumination with UV light (Hamamatsu LC6) supplied via fiber optic and filtered through a band-pass filter (380-400 nm; >6 OD cutoff). Fluorescence emission of the entire 384-well plate was detected by measuring light intensity using a CCD camera (Sensys, Roper Scientific) filtered to detect 500 ± 25 nm, resulting in simultaneous and independent readings of all 384 wells. Images were collected at each temperature, and the sum of the pixel intensity in a given area of the assay plate was recorded versus temperature. Reference wells contained RORyt without compounds, and the assay conditions were as follows: • 0.065 mg/mL RORγt • 60 µM 1,8-ANS • 100 mM Hepes, pH 7.0 • 10 mM NaCl • 2.5 mM GSH • 0.002% Tween-20
Project compounds were arranged in a pre-dosed mother plate (Greiner Bio-one) wherein compounds are serially diluted in 100% DMSO by 1:2 from a high concentration of 10 mM over 12 columns within a series (column 12 is a reference well containing DMSO, no compound). The compounds were robotically dispensed directly into assay plates (1x = 46 nL) using a Hummingbird capillary liquid handling instrument (Digilab). Following compound dispense, protein and dye in buffer was added to achieve the final assay volume of 3 µL, followed by 1 µL of silicone oil.

Structures can show the parent of a compound that is named as a salt. A value given as a limit tells only on which side of the number the result lay.

On to `COc1nc2ccc(C(O)c3cnc(C)n3C)cc2c(Cl)c1Cc1ccc(F)cc1` (single isomer, unassigned) [Example 8c], for which the “RORγt (LBD) Reporter Assay, % inhibition @ 6 µM” value in experiment [1] (6 µM compound, 6 µM) turned out to be 37%.
For the molecule `COc1nc2ccc(C(O)c3cncn3C)cc2c(Cl)c1Cc1ccc(C(F)(F)F)cc1` (single isomer, unassigned) [Example 18b, (4-Chloro-2-methoxy-3-(4-(trifluoromethyl)benzyl)quinolin-6-yl)(1-methyl-1H-imidazol-5-yl)methanol], the inhibition at 6 µM in experiment [1] (6 µM compound) was 98%. Besides, in experiment [1], the IC50 was determined as 510 nM. Besides, in experiment [2], the Kd was 290 nM.
On the same counts, the results for `Cc1ncc(C(O)c2ccc3nc(N4CCC4)c(Cc4ccc(-n5cccn5)cc4)c(Cl)c3c2)n1C` (single isomer, unassigned) [Example 21b, {2-Azetidin-1-yl-4-chloro-3-[4-(1H-pyrazol-1-yl)benzyl]quinolin-6-yl}(1,2-dimethyl-1H-imidazol-5-yl)methanol] are 88%, 690 nM and 260 nM.
For `Cc1noc(C)c1C(O)c1ccc2nc(Cl)c(-c3ccccc3)c(Cl)c2c1` (centres unmarked) [Example 1, (2,4-Dichloro-3-phenylquinolin-6-yl)(3,5-dimethylisoxazol-4-yl)methanol] the same measures were 48%, above 6000 nM and 550 nM.
For `Cn1cncc1C(O)c1ccc2nc(Cl)c(-c3ccccc3)c(Cl)c2c1` (centres unmarked) [Example 2, (2,4-Dichloro-3-phenylquinolin-6-yl)(1-methyl-1H-imidazol-5-yl)methanol] the same measures were 12%, above 6000 nM and 1600 nM.
With `Cn1cncc1C(O)c1ccc2nc(Cl)c(-c3ccccc3Cl)c(Cl)c2c1` (centres unmarked) [Example 3, (2,4-Dichloro-3-(2-chlorophenyl)quinolin-6-yl)(1-methyl-1H-imidazol-5-yl) methanol], the Kd in experiment [2] was 450 nM.
With `Cc1cc(C(O)c2cncn2C)cc2c(Cl)c(-c3ccccc3)c(Cl)nc12` (centres unmarked) [Example 4, (2,4-Dichloro-8-methyl-3-phenylquinolin-6-yl)(1-methyl-1H-imidazol-5-yl)methanol•TFA], in experiment [1] (6 µM compound), the inhibition at 6 µM was -1%. The same molecule had an IC50 in experiment [1] above 6000 nM. Besides, the Kd in experiment [2] was 4900 nM.
As to `COc1nc2ccc(C(O)C3CCN(C(C)=O)CC3)cc2c(Cl)c1Cc1ccc(C(F)(F)F)cc1` (centres unmarked) [Example 6, (1-Acetylpiperidin4-yl){4-chloro-2-methoxy-3-[4-(trifluoromethyl)benzyl]quinolin-6-yl}methanol], in experiment [1] (6 µM compound), the inhibition at 6 µM was found to be 95%. For the same molecule, in experiment [1], the IC50 turned out to be 790 nM. Further, in experiment [2], the Kd was 220 nM.
Turning to `Cn1cncc1C(O)c1ccc2nc(Cl)c(Cc3ccc(-n4cccn4)cc3)c(Cl)c2c1` (centres unmarked) [Example 7, (3-(4-(1H-Pyrazol-1-y1)benzyl)-2,4-dichloroquinolin-6-yl)(1-methyl-1H-imidazol-5-yl)methanol], the inhibition at 6 µM in experiment [1] (6 µM compound) is 93%. In experiment [1], this molecule showed an IC50 of around 2000 nM. In addition, the Kd in experiment [2] is 480 nM.
In the case of `COc1nc2ccc(C(O)c3cnc(C)n3C)cc2c(Cl)c1Cc1ccc(F)cc1` (centres unmarked) [Example 8a], the inhibition at 6 µM in experiment [1] (6 µM compound) stood at 40%. Besides, in experiment [2], the Kd was 180 nM.
For the molecule `COc1nc2c(C)cc(C(O)c3cncn3C)cc2c(Cl)c1Cc1ccc(S(C)(=O)=O)cc1` (centres unmarked) [Example 10], the inhibition at 6 µM in experiment [1] (6 µM compound) stood at 59%. Also, the IC50 in experiment [1] is around 6000 nM. Also, in experiment [2], the Kd was 3000 nM.
Consider `COc1nc2c(C)cc(C(O)c3cncn3C)cc2c(Cl)c1Cc1cccc(C(F)(F)F)c1` (centres unmarked) [Example 11, (4-Chloro-2-methoxy-8-methyl-3-(3-(trifluoromethyl)benzyl)quinolin-6-yl)(1-methyl-1H-imidazol-5-yl)methanol], for which the inhibition at 6 µM in experiment [1] (6 µM compound) amounted to 24%. Also, the IC50 in experiment [1] was above 6000 nM. The Kd in experiment [2] was 150 nM.
On the same counts, the results for `COc1nc2c(C)cc(C(O)c3cncn3C)cc2c(Cl)c1Cc1ccc(-n2cccn2)cc1` (centres unmarked) [Example 12, (3-(4-(1H-Pyrazol-1-yl)benzyl)-4-chloro-2-methoxy-8-methylquinolin-6-yl)(1-methyl-1H-imidazol-5-yl)methanole•TFA] are 92%, around 1000 nM and 600 nM.
For `Cc1ncc(C(O)c2ccc3nc(Cl)c(-c4ccccc4)c(Cl)c3c2)n1C` (centres unmarked) [Example 13, (2,4-Dichloro-3-phenylquinolin-6-yl)(1,2-dimethyl-1H-imidazol-5-yl)methanol] the same measures were 43%, above 6000 nM and 1200 nM.
`COc1nc2ccc(C(O)c3ccc(C)nc3C)cc2c(Cl)c1Cc1ccc(C(F)(F)F)cc1` (centres unmarked) [Example 14a, (4-Chloro-2-methoxy-3-(4-(trifluoromethyl)benzyl)quinolin-6-yl)(2,6-dimethylpyridin-3-yl)methanol]: the dissociation constant Kd in experiment [2] was 71 nM.
Regarding `COc1nc2ccc(C(O)c3cnc(C)n3C)cc2c(Cl)c1Cc1ccc(C(F)(F)F)cc1` (centres unmarked) [Example 15a, (4-Chloro-2-methoxy-3-(4-(trifluoromethyl)benzyl)quinolin-6-yl)(1,2-dimethyl-1H-imidazol-5-yl)methanol], the inhibition at 6 µM in experiment [1] (6 µM compound) came out at 101%. This molecule also gave an IC50 in experiment [1] of 43 nM. Also, the Kd in experiment [2] is 74 nM.
On the same counts, the results for `COc1nc2ccc(C(O)c3ccc(C)nc3C)cc2cc1Cc1ccc(C(F)(F)F)cc1` (centres unmarked) [Example 16, (2,6-Dimethylpyridin-3-yl)(2-methoxy-3-(4-(trifluoromethyl)benzyl)quinolin-6-yl)methanol] are 88%, 1900 nM and 4800 nM.
Regarding `COc1nc2ccc(C(O)c3cnnn3C)cc2c(Cl)c1Cc1ccc(C(F)(F)F)cc1` (centres unmarked) [Example 17a, (4-Chloro-2-methoxy-3-(4-(trifluoromethyl)benzyl)quinolin-6-yl)(1-methyl-1H-1,2,3-triazol-5-yl)methanol], the inhibition at 6 µM in experiment [1] (6 µM compound) worked out at 99%. For the same molecule, the IC50 in experiment [1] worked out at 310 nM. In addition, the Kd in experiment [2] is 64 nM.
`COc1nc2ccc(C(O)c3cncn3C)cc2c(Cl)c1Cc1ccc(C(F)(F)F)cc1` (centres unmarked) [Example 18a, (4-Chloro-2-methoxy-3-(4-(trifluoromethyl)benzyl)quinolin-6-yl)(1-methyl-1H-imidazol-5-yl)methanol]: the inhibition at 6 µM in experiment [1] (6 µM compound) worked out at 96%. The molecule also gave an IC50 in experiment [1] of 380 nM. Further, in experiment [2], the Kd was 240 nM.

The values above are taken from patent EP3057949B1, “SECONDARY ALCOHOL QUINOLINYL MODULATORS OF ROR GAMMA T” (Janssen Pharmaceutica NV, priority 2013, dated 2015).
